Key:
[1] = system: AR 1.0 cells; test: Drug accumulation assay: daunorubicin accumulation in AR 1.0 cells; type: cell-based; conditions: Mus musculus, 100% = accumulation with verapamil 100 μM, 1 hr, 37° C.
Experimental: (§1) The EMT6 mouse mammary carcinoma cell line and the MDR resistant subline AR 1.0 were cultured in RPMI 1640 medium containing 10% foetal calf serum and 2 mM glutamine at 37° C. in 5% CO2. Cells were passaged between 1 in 200 and 1 in 2000 in the case of the parental cell line and between 1 in 20 and 1 in 200 in the case of the MDR resistant subline, after trypsinisation (0.25% trypsin, 0.2 gl^-1, EDTA).
AR 1.0 cells were seeded 48 hours prior to assay into 96 well opaque culture plates (Canberra Packard).

[2] = system: AR 1.0 cells; test: Potentiation index with doxorubicin titration; type: cell-based, mouse; conditions: for Potentiation Index at RMA concentration 10 nM: Table C1, RMA 10 nM; for Potentiation Index at RMA concentration 30 nM: Table C1, RMA 30 nM; for Potentiation Index at RMA concentration 50 nM: Table C1, RMA 50 nM; for Potentiation Index at RMA concentration 100 nM: Table C1, RMA 100 nM
Experimental: as §1, with “EDTA). […]” for “EDTA).”
(b) Cells were cultured for four days with a titration of doxorubicin (0.263 nM-17.24 μM) in the presence of a fixed concentration of each compound. Proliferation was quantified as described by Skehen et al, loc cit. The IC50 (concentration required to reduce proliferation to 50% of the untreated controls) for doxorubicin alone and with each compound were derived and used to calculate the potentiation index (PI): [formula]

| Structure (SMILES) | IC50 [1] | Potentiation Index at RMA concentration 10 nM [2] | Potentiation Index at RMA concentration 30 nM [2] | Potentiation Index at RMA concentration 50 nM [2] | Potentiation Index at RMA concentration 100 nM [2] |
| --- | --- | --- | --- | --- | --- |
| CN(CCc1ccc(NC(=O)c2ccccc2NC(=O)c2cnc3ccccc3c2)cc1)Cc1ccc(N(C)C)cc1 [compound 9655, Quinoline-3-carboxylic acid [2-(4-{2-[(4-dimethylamino-benzyl)-methyl-amino]-ethyl}-phenylcarbamoyl)-phenyl]-amide] | 557 nM | 1.8 | 13 | 37 | 65 |
| Cc1ccc(CN(C)CCc2ccc(NC(=O)c3ccccc3NC(=O)c3cnc4ccccc4c3)cc2)cc1C [compound 9631, Quinoline-3-carboxylic acid [2-(4-{2-[(3,4-dimethyl-benzyl)-methyl-amino]-ethyl}-phenylcarbatnoyl)-phenyl]-amide] | 669 nM | 1 | 9 | 20 | 67 |
| COc1cc2c(cc1OC)CN(CCOc1ccc(NC(=O)c3ccccc3NC(=O)c3cnc4ccccc4n3)cc1)CC2 [compound 9632, Quinoxaline-2-carboxylic acid (2-{4-[2-(6,7-dimethoxy-3,4-dihydro-1H-isoquinolin-2-yl)-ethoxy]-phenylcarbamoyl}-phenyl)-amide] | 431 nM | 1.1 | 2.1 | 2.7 | 8 |
| CN(CCc1ccc(NC(=O)c2ccccc2NC(=O)c2cnc3ccccc3c2)cc1)Cc1ccc(F)c(F)c1 [compound 9643, Quinoline-3-carboxylic acid [2-(4-{2-[(3,4-difluoro-benzyl)-methyl-amino]-ethyl}-phenylcarbamoyl)-phenyl]-amide] | 425 nM | 1.0 | 1.5 | 2.4 | 6.7 |
| O=C(Nc1ccccc1C(=O)NCCN1CCc2ccccc2C1)c1ccc(C2CCCCC2)cc1 [compound 9479, 2-(4-Cyclohexyl-benzoylamino)-N-[2-(3,4-dihydro-1H-isoquinolin-2-yl)-ethyl]-benzamide] | 2100 nM |  |  |  |  |
| COc1cc2c(cc1OC)CN(CCc1ccc(NC(=O)c3sc4nccnc4c3NC(=O)c3cnc4ccccc4c3)cc1)CC2 [compound 9666, Quinoline-3-carboxylic acid (6-{4-[2-(6,7-dimethoxy-3,4-dihydro-1H-isoquinolin-2-yl)-ethyl]-phenylcarbamoyl}-thieno[2,3-b]pyrazin-7-yl)-amide] | 8670 nM |  |  |  |  |
| COc1cc2c(cc1OC)CN(CCNC(=O)c1cccc(C)c1NC(=O)c1ccc(C(C)C)cc1)CC2 [compound 9398, 2-(4-Isopropyl-benzoylamino)-N-[2-(6,7-dimethoxy-3,4-dihydro-1H-isoquinolin-2-yl)-ethyl]-3-methyl-benzamide] | 1500 nM |  |  |  |  |
| COc1cc2c(cc1OC)CN(CCNC(=O)c1ccccc1NC(=O)c1ccc3c(c1)OCO3)CC2 [compound 9302, Benzo[1,3]dioxole-5-carboxylic acid {2-[2-(6,7-dimethoxy-3,4-dihydro-1H-isoquinolin-2-yl)-ethylcarbamoyl]-phenyl}-amide] | 5000 nM |  |  |  |  |
| COc1cc2c(cc1OC)CN(CCc1ccc(NC(=O)c3ccccc3NC(=O)c3ccoc3)cc1)CC2 [compound 9526, Furan-3-carboxylic acid (2-{4-[2-(6,7-dimethoxy-3,4-dihydro-1H-isoquinolin-2-yl)-ethyl]-phenylcarbamoyl}-phenyl)-amide] | 1400 nM |  |  |  |  |
| COc1ccc(C(=O)Nc2ccccc2C(=O)Nc2ccc(CCN3CCc4cc(OC)c(OC)cc4C3)cc2)cn1 [compound 9582, N-(2-{4-[2-(6,7-Dimethoxy-3,4-dihydro-1H-isoquinolin-2-yl)-ethyl]-phenylcarbamoyl}-phenyl)-6-methoxy-nicotinamide] | 1270 nM |  |  |  |  |
| COc1cc2c(cc1OC)CN(CCNC(=O)c1cccc(OC)c1NC(=O)c1ccc(C(C)C)cc1)CC2 [compound 9399, 2-(4-Isopropyl-benzoylamino)-N-[2-(6,7-dimethoxy-3,4-dihydro-1H-isoquinolin-2-yl)-ethyl]-3-methoxy-benzamide] | 5000 nM |  |  |  |  |
| COc1cc2c(cc1OC)CN(CCNC(=O)c1ccccc1NC(=O)c1ccncc1)CC2 [compound 9384, N-{2-[2-(6,7-Dimethoxy-3,4-dihydro-1H-isoquinolin-2-yl)-ethylcarbamoyl]-phenyl}-isonicotinamide] | > 10000 nM |  |  |  |  |
| COc1cc2c(cc1OC)CN(CCc1ccc(NC(=O)c3ccccc3NC(=O)c3cccc(N(C)C)c3)cc1)CC2 [compound 9556, 2-(3-Dimethylamino-benzoylamino)-N-{4-[2-(6,7-dimethoxy-3,4-dihydro-1H-isoquinolin-2-yl)-ethyl]-phenyl}-benzamide] | 860 nM |  |  |  |  |
| COc1cc2c(cc1OC)CN(CCNC(=O)c1ccccc1NC(=O)c1ccccn1)CC2 [compound 9377, Pyridine-2-carboxylic acid {2-[2-(6,7-dimethoxy-3,4-dihydro-1H-isoquinolin-2-yl)-ethylcarbamoyl]-phenyl}-amide] | 5500 nM |  |  |  |  |
| COc1cc2c(cc1OC)CN(CCNC(=O)c1ccccc1NC(=O)c1cnc3ccccc3c1)CC2 [compound 9397, Quinoline-3-carboxylic acid {2-[2-(6,7 dimethoxy-3,4-dihydro-1H-isoquinolin-2-yl)-ethylcarbamoyl]-phenyl}-amide] | 10000 nM |  |  |  |  |
| COc1cc2c(cc1OC)CN(CCc1ccc(NC(=O)c3ccccc3NC(=O)c3cnccn3)c(C)c1)CC2 [compound 9658, Pyrazine-2-carboxylic acid (2-{4-[2-(6,7-dimethoxy-3,4-dihydro-1H-isoquinolin-2-yl)-ethyl]2-methyl-phenylcarbamoyl}-phenyl)-amide] | 2900 nM |  |  |  |  |

Now those with a lower IC50 [1], led by results:

| IC50 [1] | Structure (SMILES) | Potentiation Index at RMA concentration 10 nM [2] | Potentiation Index at RMA concentration 30 nM [2] | Potentiation Index at RMA concentration 50 nM [2] | Potentiation Index at RMA concentration 100 nM [2] |
| --- | --- | --- | --- | --- | --- |
| 343 nM | COc1cc(CCN2CCc3cc(OC)c(OC)cc3C2)ccc1NC(=O)c1ccccc1NC(=O)c1cnc(C)cn1 [compound 9657, 5-Methyl-pyrazine-2-carboxylic acid (2-{4-[2-(6,7-dimethoxy-3,4-dihydro-1H-isoquinolin-2-yl)-ethyl]-2-methoxy-phenylcarbamoyl}-phenyl)-amide] |  |  |  |  |
| 213 nM | COc1cc2c(cc1OC)CN(CCc1ccc(NC(=O)c3cc(SC)ccc3NC(=O)c3cnc4ccccc4c3)cc1)CC2 [compound 9615, Quinoline-3-carboxylic acid (2-{4-[2-(6,7-dimethoxy-3,4-dihydro-1H-isoquinolin-2-yl)-ethyl]-phenylcarbamoyl}-4-methylsulfanyl-phenyl)-amide] | 2 | 23 | 85 | 175 |
| 200 nM | COc1cc2c(cc1OC)CN(CCc1ccc(NC(=O)c3ccccc3NC(=O)c3ccc(F)cc3F)cc1)CC2 [compound 9513, 2-(2,4-Difluoro-benzoylamino)-N-{4-[2-(6,7-dimethoxy-3,4-dihydro-1H-isoquinolin-2-yl)-ethyl]-phenyl}-benzamide] |  |  |  |  |
| 184 nM | CCN(CCc1ccc(NC(=O)c2ccccc2NC(=O)c2cnc3ccccc3c2)cc1)Cc1ccc(OC)c(OC)c1 [compound 9636] | 2.6 | 22 | 46 | 131 |
| 179 nM | CN(CCc1ccc(NC(=O)c2ccccc2NC(=O)c2cnc3ccccc3c2)cc1)Cc1ccc2c(c1)OCCO2 [compound 9645, Quinoline-3-carboxylic acid [2-(4-{2-[(2,3-dihydro-benzo [1,4]dioxin-6-ylmethyl)-methyl-amino]-ethyl}-phenylcarbamoyl)-phenyl]-amide] | 1.0 | 1.3 | 2.1 | 7.2 |
| 169 nM | COc1ccc(CN(C)CCc2ccc(NC(=O)c3ccc([N+](=O)[O-])cc3NC(=O)c3cnc4ccccc4c3)cc2)cc1OC [compound 9677, Quinoline-3-carboxylic acid [2-(4-{2-[(3,4-dimethoxy-benzyl)-methyl-amino]-ethyl}-phenylcarbamoyl)-5-nitro-phenyl]-amide] |  |  |  |  |
| 135 nM | COc1cc2c(cc1OC)CN(CC(C)c1ccc(NC(=O)c3ccccc3NC(=O)c3cnc4ccccc4c3)cc1)CC2 (stereo not drawn) [compound 9654, Quinoline-3-carboxylic acid (2-{4-[2-(6,7-dimethoxy-3,4-dihydro-1H-isoquinolin-2-yl)-1-methyl-ethyl]-phenylcarbamoyl}-phenyl)-amide] |  |  |  |  |
| 33 nM | COc1ccc(CN(C)CCc2ccc(NC(=O)c3ccccc3NC(=O)c3cnc4ccccc4c3)cc2)cc1O [compound 9647, Quinoline-3-carboxylic acid [2-(4-{2-[(3-hydroxy-4-methoxy-benzyl)-methyl-amino]-ethyl}-phenylcarbamoyl)-phenyl]-amide] |  |  | 1 | 6 |

— US6218393A, “Anthranilic acid derivatives as multi drug resistance modulators” (priority 1997, dated 2001)
